Like-named read-outs stand apart in the source and are kept apart here. A value given as a limit tells only on which side of the number the result lay.

What is called Ki is the equilibrium dissociation constant of an inhibitor or competing ligand from its target.

In assay [1] the target is T1, human glucocorticoid receptor-α [GRX] isoform (Homo sapiens, UniProt P04150).
T1 construct: host or cells: insect SF21 cells (baculovirus)
T1 sequence (P04150 1-777): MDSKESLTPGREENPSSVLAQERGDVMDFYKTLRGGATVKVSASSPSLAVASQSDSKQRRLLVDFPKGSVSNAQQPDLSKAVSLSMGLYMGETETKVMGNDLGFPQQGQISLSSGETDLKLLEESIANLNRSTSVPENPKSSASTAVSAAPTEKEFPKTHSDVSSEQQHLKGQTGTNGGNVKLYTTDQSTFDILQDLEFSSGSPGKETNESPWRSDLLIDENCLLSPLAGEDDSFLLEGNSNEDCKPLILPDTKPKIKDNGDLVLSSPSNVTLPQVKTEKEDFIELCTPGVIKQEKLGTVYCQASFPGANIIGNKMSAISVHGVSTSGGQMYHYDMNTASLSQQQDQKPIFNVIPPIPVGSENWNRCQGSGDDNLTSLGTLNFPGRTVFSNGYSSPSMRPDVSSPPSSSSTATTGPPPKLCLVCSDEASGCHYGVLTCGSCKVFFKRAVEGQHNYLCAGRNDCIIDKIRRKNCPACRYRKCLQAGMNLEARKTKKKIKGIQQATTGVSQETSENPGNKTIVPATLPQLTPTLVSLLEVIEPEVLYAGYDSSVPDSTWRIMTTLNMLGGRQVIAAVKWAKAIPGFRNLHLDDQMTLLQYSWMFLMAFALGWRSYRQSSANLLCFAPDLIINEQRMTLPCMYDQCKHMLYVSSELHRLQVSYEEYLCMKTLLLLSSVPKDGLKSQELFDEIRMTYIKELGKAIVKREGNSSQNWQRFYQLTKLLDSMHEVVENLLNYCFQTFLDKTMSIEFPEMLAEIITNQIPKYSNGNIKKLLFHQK
Briefly: Radioligand binding with human glucocorticoid receptor cytosol ([3H]-dexamethasone competition). Conditions: read-out: Ki (nM) GR.

Assay [2] deals with T2, human progesterone receptor-A [PRA] isoform (Homo sapiens, UniProt P06401).
T2 construct: host or cells: insect SF21 cells (baculovirus)
T2 sequence (P06401 1-769 isoform P06401-2): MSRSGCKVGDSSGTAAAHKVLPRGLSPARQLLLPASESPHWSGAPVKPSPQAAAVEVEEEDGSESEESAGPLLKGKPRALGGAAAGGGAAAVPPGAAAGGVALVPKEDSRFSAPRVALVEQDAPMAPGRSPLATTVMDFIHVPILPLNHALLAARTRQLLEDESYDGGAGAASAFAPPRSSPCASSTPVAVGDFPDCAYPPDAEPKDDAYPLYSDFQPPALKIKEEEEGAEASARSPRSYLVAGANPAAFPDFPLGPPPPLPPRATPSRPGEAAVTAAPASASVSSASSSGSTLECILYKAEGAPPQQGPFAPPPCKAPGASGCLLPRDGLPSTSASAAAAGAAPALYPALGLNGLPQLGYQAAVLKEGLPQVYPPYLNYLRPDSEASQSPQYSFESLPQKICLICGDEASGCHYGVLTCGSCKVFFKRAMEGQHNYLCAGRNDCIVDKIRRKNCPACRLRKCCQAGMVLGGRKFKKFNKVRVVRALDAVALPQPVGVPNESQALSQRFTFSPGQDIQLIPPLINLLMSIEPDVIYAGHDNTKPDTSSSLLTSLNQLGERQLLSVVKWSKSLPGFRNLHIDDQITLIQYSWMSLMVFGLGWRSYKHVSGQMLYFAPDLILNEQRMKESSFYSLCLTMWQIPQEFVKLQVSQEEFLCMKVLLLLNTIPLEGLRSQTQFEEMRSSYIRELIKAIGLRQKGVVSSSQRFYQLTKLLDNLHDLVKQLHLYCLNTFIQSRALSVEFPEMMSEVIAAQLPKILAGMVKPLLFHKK
Briefly: Radioligand binding with human progesterone receptor cytosol ([3H]-progesterone competition). To be noted: read-out: Ki (nM) PR.

Setting [3] is: GRX cytosol expressed in insect SF21 cells, [3H]-Dex ~0.9 nM, 4° C. overnight, Ki by Cheng-Prusoff, KL ~[…].
The mark [4] stands for this setting: PRA cytosol expressed in insect SF21 cells, [3H]Prog ~0.8 nM, 4° C. overnight, Ki by Cheng-Prusoff, KL ~4.5 nM.

Take `C=CCC1Oc2c(Br)ccc(OC)c2-c2ccc3c(c21)C(C)=CC(C)(C)N3` (centres unmarked) [Example 298, 10-Methoxy-7-bromo-5-(3-propenyl)-2,2,4-trimethyl-1H-2,5-dihydro-[1]benzopyrano[3,4-f]quinoline]: the Ki in assay [1] (setting [3]) is 4.1 nM; in assay [2] (setting [4]), no less than 10000 nM.

With `C=CCC1Oc2ccc(OC(=O)CCC(=O)N(C)C)c(OC)c2-c2ccc3c(c21)C(C)=CC(C)(C)N3` (centres unmarked) [Example 296, 2,5-Dihydro-9-(4-N,N-dimethylamino-4-oxo-butanoyloxy)-10-methoxy-2,2,4-trimethyl-5(2-propenyl)-1H-[1]benzopyrano[3,4-f]quinoline], the inhibition constant (Ki) came to 0.63 nM in assay [1] (setting [3]) and 476 nM in assay [2] (setting [4]).

In the case of `C=CCC1Oc2c(C)ccc(OC)c2-c2ccc3c(c21)C(C)=CC(C)(C)N3` (centres unmarked) [Example 305, 10-Methoxy-7-methyl-5-(3-propenyl)-2,2,4-trimethyl-1H-2,5-dihydro-[1]benzopyrano[3,4-f]quinoline], the results for the inhibitory constant (Ki) in assay [1] (setting [3]) and in assay [2] (setting [4]) were 2 nM and 6920 nM, respectively.

For `C=CCOc1cccc(C2Oc3cccc(OC)c3-c3ccc4c(c32)C(C)=CC(C)(C)N4)c1` (centres unmarked) [Example 86, 2,5-Dihydro-10-methoxy-2,2,4-trimethyl-5-[3-(2-propenyloxy)phenyl]-1H-[1]benzopyrano[3,4-f]quionline], the Ki in assay [1] (setting [3]) was 2.1 nM; in assay [2] (setting [4]) it was no less than 10000 nM.

In the case of `C=CCNC(=O)Oc1ccc2c(c1OC)-c1ccc3c(c1C(CC=C)O2)C(C)=CC(C)(C)N3` (centres unmarked) [Example 442, 10-Methoxy-9-(allylaminocarbonyl)oxy-5-(3-propenyl)-2,2,4-trimethyl-1H-2,5-dihydro-[1]benzopyrano[3,4-f]quinoline], the results for the Ki in assay [1] and in assay [2] were 9.1 nM and 8860 nM, respectively.

In the case of `COc1cccc2c1-c1ccc3c(c1C(c1cccc(CCO)c1)O2)C(C)=CC(C)(C)N3` (centres unmarked) [Example 314, 2,5-Dihydro-10-methoxy-5-(3-(2-hydroxyethyl)phenyl)-2,2,4-trimethyl-1H-[1]benzopyrano[3,4-f]quinoline], the Ki in assay [1] (setting [3]) is 1.7 nM; in assay [2] (setting [4]), no less than 10000 nM.

Turning to `C=CCC1Oc2ccc(OC(=O)CCNC(C)=O)c(OC)c2-c2ccc3c(c21)C(C)=CC(C)(C)N3` (racemic) [Example 428, (+/−)2,5-Dihydro-9-(3-acetamido-propanoyloxy)-10-methoxy-2,2,4-trimethyl-5-allyl-1H-[1]benzopyrano[3,4-f]quinoline], the inhibitory constant (Ki) in assay [1] (setting [3]) is 0.91 nM; in assay [2] (setting [4]), 204 nM.

Take `CC/C=C/CC1Oc2cccc(OC)c2-c2ccc3c(c21)C(C)=CC(C)(C)N3` (stereo not drawn) [Example 192, trans 2,5-Dihydro-10-methoxy-5-(2-penten-1-yl)-2,2,4-trimethyl-1H-[1]benzopyrano[3,4-f]quinoline]: the Ki in assay [1] (setting [3]) is 3.1 nM; in assay [2] (setting [4]) it was no less than 10000 nM.

As for `C/C=C\CC1Oc2ccc(O)c(OC)c2-c2ccc3c(c21)C(C)=CC(C)(C)N3` (centres unmarked) [Example 282, (Z)2,5-Dihydro-9-hydroxy-10-methoxy-2,2,4-trimethyl-5-(2-butenyl)-1H-[1]benzopyrano[3,4-f]quinoline], the Ki amounted to 0.5 nM in assay [1] (setting [3]) and 42 nM in assay [2] (setting [4]).

As for `C=CCC1Oc2cccc(C(=O)OC)c2-c2ccc3c(c21)C(C)=CC(C)(C)N3` (centres unmarked) [Example 4, Methyl 2,5-Dihydro-2,2,4-trimethyl-5-(2-propenyl)-1H-[1]benzopyrano[3,4-f]quinoline-10-carboxylate], the Ki turned out to be 7 nM in assay [1] (setting [3]) and 2960 nM in assay [2] (setting [4]).

For `COc1cccc2c1-c1ccc3c(c1C(N(C)c1ccccc1)O2)C(C)=CC(C)(C)N3` (centres unmarked) [Example 35, 2,5-Dihydro-10-methoxy-2,2,4,N-tetramethyl-N-phenyl-1H-[1]benzopyrano[3,4-f]quinolin-5-amine], the figures for the Ki in assay [1] (setting [3]) and in assay [2] (setting [4]) were 260 nM and no less than 10000 nM, respectively.

Regarding `COc1c(O)ccc2c1-c1ccc3c(c1C(CC=C(C)C)O2)C(C)=CC(C)(C)N3` (centres unmarked) [Example 283, 2,5-Dihydro-9-hydroxy-10-methoxy-2,2,4-trimethyl-5-(3-methyl-2-butenyl)-1H-[1]benzopyrano[3,4-f]quinoline], the Ki amounted to 1.1 nM in assay [1] (setting [3]) and 60.4 nM in assay [2] (setting [4]).

Consider `COc1c(O)ccc2c1-c1ccc3c(c1C(Cc1ccccc1)O2)C(C)=CC(C)(C)N3` (centres unmarked) [Example 262, 2,5-Dihydro-9-hydroxy-10-methoxy-5-(phenylmethyl)-2,2,4-trimethyl-1H-[1]benzopyrano[3,4-f]quinoline], for which the Ki in assay [1] (setting [3]) was determined as 1.1 nM; in assay [2] (setting [4]), 150 nM.

Turning to `COc1cccc(C2Oc3cccc(OC)c3-c3ccc4c(c32)C(C)=CC(C)(C)N4)c1` (centres unmarked) [Example 85, 2,5-Dihydro-10-methoxy-5-(3-methoxyphenyl)-2,2,4-trimethyl-1H-[1]benzopyrano[3,4-f]quinoline], the Ki in assay [1] (setting [3]) is 3.5 nM; in assay [2] (setting [4]), no less than 10000 nM.

Turning to `COCc1cccc2c1-c1ccc3c(c1C(c1ccccc1)O2)C(C)=CC(C)(C)N3` (centres unmarked) [Example 338, 2,5-Dihydro-10-(methoxymethyl)-5-phenyl-2,2,4-trimethyl-1H-[1]benzopyrano[3,4-f]quinoline], the inhibition constant (Ki) in assay [1] (setting [3]) was 61 nM; in assay [2] (setting [4]), no less than 10000 nM.

For `COCCNC(=O)OCCC1Oc2cccc(OC)c2-c2ccc3c(c21)C(C)=CC(C)(C)N3` (centres unmarked) [Example 202, 2,5-Dihydro-10-methoxy-5-(2-(N-(2-methoxyethyl)aminocarbonyloxy)ethyl)-2,2,4-trimethyl-1H-[1]benzopyrano[3,4-f]quinoline], the Ki is 134 nM in assay [1] (setting [3]) and no less than 10000 nM in assay [2] (setting [4]).

On to `COc1c(Br)cc(Br)c2c1-c1ccc3c(c1C(C1C=C(C)CCC1)O2)C(C)=CC(C)(C)N3` (centres unmarked) [Example 303], for which the Ki in assay [1] (setting [3]) stood at 4.9 nM; in assay [2] (setting [4]) it was 58.5 nM.

Take `COc1cccc2c1-c1ccc3c(c1C(C#Cc1ccccc1)O2)C(C)=CC(C)(C)N3` (centres unmarked) [Example 322, 2,5-Dihydro-10-methoxy-5-(2-phenylethynyl)-2,2,4-trimethyl-1H-[1]benzopyrano[3,4-f]quinoline]: the Ki came out at 107 nM in assay [1] (setting [3]) and 2300 nM in assay [2] (setting [4]).

For `C=CCCCC1Oc2ccc(O)c(OC)c2-c2ccc3c(c21)C(C)=CC(C)(C)N3` (centres unmarked) [Example 387], the Ki was 0.65 nM in assay [1] (setting [3]) and 169 nM in assay [2] (setting [4]).

Regarding `CC1=CC(C)(C)Nc2ccc3c(c21)C(c1cc(F)c(F)c(F)c1)Oc1ccc(O)c(Cl)c1-3` (centres unmarked) [Example 435, 2,5-Dihydro-9-hydroxy-10-chloro-2,2,4-trimethyl-5-(3,4,5-trifluorophenyl)-1H-[1]benzopyrano[3,4-f]quinoline], the Ki in assay [1] (setting [3]) came out at 120 nM; in assay [2] (setting [4]), 734 nM.

As to `COc1cccc2c1-c1ccc3c(c1C(CCOC(=O)N(C)C)O2)C(C)=CC(C)(C)N3` (centres unmarked) [Example 204, 2,5-Dihydro-10-methoxy-5-(2-(N,N-dimethylaminocarbonyloxy)ethyl)-2,2,4-trimethyl-1H-[1]benzopyrano[3,4-f]quinoline], the results for the Ki in assay [1] (setting [3]) and in assay [2] (setting [4]) were 74 nM and no less than 10000 nM, respectively.

Take `COc1cccc2c1-c1ccc3c(c1C(=Cc1cc(C)no1)O2)C(C)=CC(C)(C)N3` [Example 350, 10-Methoxy-5-(3-methylisoxazol-5-yl)methyidene-2,5-dihydro-5-phenyl-2,2,4-trimethyl-1H-[1]benzopyrano[3,4-f]quinoline]: the results for the Ki in assay [1] (setting [3]) and in assay [2] (setting [4]) were 6.22 nM and no less than 10000 nM, respectively.

These data come from patent publication US6506766B1 (Abbott Laboratories, priority 1998, dated 2003).
